One may read the IC50 as the concentration needed to halve the response being measured.

Where only a bound is given, the exact number is not on record here.

The test addresses T1, Recombinant N-terminal GST tag full-length human HDAC8 (Homo sapiens, UniProt Q9BY41).
T1 construct: Recombinant N-terminal GST tag full-length human HDAC8; purchased SignalChem H90-30G-1000; host or cells: baculovirus in Sf9 insect cells
T1 sequence (Q9BY41 1-377): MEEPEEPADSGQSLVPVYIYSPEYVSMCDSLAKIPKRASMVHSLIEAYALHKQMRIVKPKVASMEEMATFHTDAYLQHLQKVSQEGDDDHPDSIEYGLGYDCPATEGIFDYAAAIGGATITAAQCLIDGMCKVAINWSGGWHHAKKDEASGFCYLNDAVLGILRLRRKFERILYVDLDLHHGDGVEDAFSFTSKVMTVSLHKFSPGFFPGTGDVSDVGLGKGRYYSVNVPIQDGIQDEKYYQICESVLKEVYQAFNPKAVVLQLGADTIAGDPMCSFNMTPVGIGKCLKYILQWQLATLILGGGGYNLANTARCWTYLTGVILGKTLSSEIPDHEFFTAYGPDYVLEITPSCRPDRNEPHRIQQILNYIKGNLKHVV
In words: HDAC8 probe binding assay, time resolved fluorescence (TRF) format. As to conditions: compounds grouped by IC50 range (Table 2). The method, then: The HDAC8 probe binding assay was performed using a time resolved fluorescence (TRF) assay format. Recombinant N-terminal GST tag full-length human HDAC8 was expressed and purified from baculovirus in Sf9 insect cells (SignalChem, #[…]-1000). […] Plates were incubated for 16 hours at room temperature before time resolved fluorescence was read on the Envision (Excitation at 340 nm, and Emission at 485 nm and 535 nm, Perkin Elmer). Data from HDAC8 Assays were reported as percent inhibition (inh) compared with control wells based on the following equation: % inh=1-((FLU-AveLow)/(AveHigh-AveLow)) where FLU=measured time resolved fluorescence. AveLow=average time resolved fluorescence of no enzyme control (n=32). AveHigh=average time resolved fluorescence of DMSO control (n=32). IC50 values were determined by curve fitting of the standard 4 parameter logistic fitting algorithm included in the Activity Base software package: IDBS XE Designer Model205. Data is fitted using the Levenburg Marquardt algorithm. Ranges of IC50 values for compounds of the invention are disclosed in Table 2: Table 2. provides the compounds arranged according to […] determined in a time resolved fluorescence (TRF) assay. The compounds are separated into four groups: […]

For `COCCOc1ccc(CN2C(=O)COc3ccc(C(=O)NO)cc32)cc1` [Compound I-196, N-hydroxy-4-(4-(2-methoxyethoxy)benzyl)-3-oxo-3,4-dihydro-2H-benzo[b][1,4]oxazine-6-carboxamide], the IC50 was no more than 25 nM. The result for `COCCOc1cccc(CN2C(=O)COc3ccc(C(=O)NO)cc32)c1` [Compound I-197, N-hydroxy-4-(3-(2-methoxyethoxy)benzyl)-3-oxo-3,4-dihydro-2H-benzo[b][1,4]oxazine-6-carboxamide] reads no more than 25 nM. The result for `O=C(NO)c1ccc2c(c1)N(CC1CCN(c3ccccc3)CC1)C(=O)CO2` [Compound I-198, N-hydroxy-3-oxo-4-((1-phenylpiperidin-4-yl)methyl)-3,4-dihydro-2H-benzo[b][1,4]oxazine-6-carboxamide] reads 25 to 100 nM; that for `O=C(NO)c1ccc2c(c1)N(Cc1c[nH]c3ccccc13)C(=O)CO2` [Compound I-200, 4-((1H-indol-3-yl)methyl)-N-hydroxy-3-oxo-3,4-dihydro-2H-benzo[b][1,4]oxazine-6-carboxamide], 25 to 100 nM; that for `N#Cc1c(CN2C(=O)COc3ccc(C(=O)NO)cc32)cn2ccccc12` [Compound I-201, 4-((1-cyanoindolizin-2-yl)methyl)-N-hydroxy-3-oxo-3,4-dihydro-2H-benzo[b][1,4]oxazine-6-carboxamide], no more than 25 nM. The result for `O=C(NO)c1ccc2c(c1)N(Cc1nc(-c3ccccc3)co1)C(=O)CO2` [Compound I-202, N-hydroxy-3-oxo-4-((4-phenyloxazol-2-yl)methyl)-3,4-dihydro-2H-benzo[b][1,4]oxazine-6-carboxamide] reads no more than 25 nM; that for `O=C(NO)c1ccc2c(c1)N(Cc1n[nH]c3ccccc13)C(=O)CO2` [Compound I-203, 4-((1H-indazol-3-yl)methyl)-N-hydroxy-3-oxo-3,4-dihydro-2H-benzo[b][1,4]oxazine-6-carboxamide], 25 to 100 nM; that for `O=C(NO)c1ccc2c(c1)N(Cc1cc(-c3ccccc3)[nH]n1)C(=O)CO2` [Compound I-204, N-hydroxy-3-oxo-4-[(5-phenyl-1H-pyrazol-3-yl)methyl]-3,4-dihydro-2H-1,4-benzoxazine-6-carboxamide], no more than 25 nM.

With `O=C(NO)c1ccc2c(c1)N(Cc1cn(-c3ccccc3)cn1)C(=O)CO2` [Compound I-205, N-hydroxy-3-oxo-4-((1-phenyl-1H-imidazol-4-yl)methyl)-3,4-dihydro-2H-benzo[b][1,4]oxazine-6-carboxamide], the IC50 was in the range of 25 to 100 nM.

As for `O=C(NO)c1ccc2c(c1)N(Cc1cnn(C3CC3)c1)C(=O)CO2` [Compound I-206, 4-((1-cyclopropyl-1H-pyrazol-4-yl)methyl)-N-hydroxy-3-oxo-3,4-dihydro-2H-benzo[b][1,4]oxazine-6-carboxamide], the IC50 was 25 to 100 nM. Consider `Cc1cnc2sc(CN3C(=O)COc4ccc(C(=O)NO)cc43)nc2c1` [Compound I-207, N-hydroxy-4-((6-methylthiazolo[5,4-b]pyridin-2-yl)methyl)-3-oxo-3,4-dihydro-2H-benzo[b][1,4]oxazine-6-carboxamide], for which the IC50 was no more than 25 nM.

For the compound `COc1cnc2sc(CN3C(=O)COc4ccc(C(=O)NO)cc43)nc2c1` [Compound I-208, N-hydroxy-4-((6-methoxythiazolo[5,4-b]pyridin-2-yl)methyl)-3-oxo-3,4-dihydro-2H-benzo[b][1,4]oxazine-6-carboxamide], the IC50 is no more than 25 nM.

On to `O=C(NO)c1ccc2c(c1)N(Cc1nc3cc(Cl)cnc3s1)C(=O)CO2` [Compound I-209, 4-((6-chlorothiazolo[5,4-b]pyridin-2-yl)methyl)-N-hydroxy-3-oxo-3,4-dihydro-2H-benzo[b][1,4]oxazine-6-carboxamide], for which the half-maximal inhibitory concentration (IC50) was no more than 25 nM. With `Cc1ccc2nc(CN3C(=O)COc4ccc(C(=O)NO)cc43)sc2n1` [Compound I-210, N-hydroxy-4-((5-methylthiazolo[5,4-b]pyridin-2-yl)methyl)-3-oxo-3,4-dihydro-2H-benzo[b][1,4]oxazine-6-carboxamide] the figure was no more than 25 nM; with `COc1ccc2nc(CN3C(=O)COc4ccc(C(=O)NO)cc43)sc2n1` [Compound I-211, N-hydroxy-4-((5-methoxythiazolo[5,4-b]pyridin-2-yl)methyl)-3-oxo-3,4-dihydro-2H-benzo[b][1,4]oxazine-6-carboxamide], no more than 25 nM; with `O=C(NO)c1ccc2c(c1)N(Cc1nc3ccc(C(F)(F)F)nc3s1)C(=O)CO2` [Compound I-212, N-hydroxy-3-oxo-4-((5-(trifluoromethyl)thiazolo [5,4-b]pyridin-2-yl)methyl)-3,4-dihydro-2H-benzo[b][1,4]oxazine-6-carboxamide], 25 to 100 nM. Take `O=C(NO)c1ccc2c(c1)N(Cc1ccncc1)C(=O)CO2` [Compound I-215, N-hydroxy-3-oxo-4-(pyridin-4-ylmethyl)-3,4-dihydro-2H-benzo[b][1,4]oxazine-6-carboxamide]: the IC50 lay within 25 to 100 nM.

For the compound `O=C(NO)c1ccc2c(c1)N(Cc1cccc(Oc3ccccc3)c1)C(=O)CO2` [Compound I-220, N-hydroxy-3-oxo-4-(3-phenoxybenzyl)-3,4-dihydro-2H-benzo[b][1,4]oxazine-6-carboxamide], the IC50 is no more than 25 nM. The result for `CC1(C)Oc2ccc(C(=O)NO)cc2N(Cc2cccc(Oc3ccccc3)c2)C1=O` [Compound I-225, N-hydroxy-2,2-dimethyl-3-oxo-4-(3-phenoxybenzyl)-3,4-dihydro-2H-benzo[b][1,4]oxazine-6-carboxamide] reads 25 to 100 nM. The result for `O=C(NO)c1ccc2c(c1)N(Cc1cccc(Oc3ccc(Cl)cc3)c1)C(=O)CO2` [Compound I-226, 4-(3-(4-chlorophenoxy)benzyl)-N-hydroxy-3-oxo-3,4-dihydro-2H-benzo[b][1,4]oxazine-6-carboxamide] reads no more than 25 nM. With `CC1(C)Oc2ccc(C(=O)NO)cc2N(Cc2cccc(Oc3ccc(Cl)cc3)c2)C1=O` [Compound I-227, 4-(3-(4-chlorophenoxy)benzyl)-N-hydroxy-2,2-dimethyl-3-oxo-3,4-dihydro-2H-benzo[b][1,4]oxazine-6-carboxamide] the figure was no more than 25 nM. In the case of `O=C(NO)c1ccc2c(c1)N(Cc1ccc(Oc3ccccc3)cc1)C(=O)CO2` [Compound I-229, N-hydroxy-3-oxo-4-(4-phenoxybenzyl)-3,4-dihydro-2H-benzo[b][1,4]oxazine-6-carboxamide], the half-maximal inhibitory concentration (IC50) lay in the range of 25 to 100 nM. The result for `O=C(NO)c1ccc2c(c1)N(Cc1cccc3ccccc13)C(=O)CO2` [Compound I-230, N-hydroxy-4-(naphthalen-1-ylmethyl)-3-oxo-3,4-dihydro-2H-benzo[b][1,4]oxazine-6-carboxamide] reads 25 to 100 nM. The result for `O=C(NO)c1ccc2c(c1)N(Cc1ccc3ncccc3c1)C(=O)CO2` [Compound I-231, N-hydroxy-3-oxo-4-(quinolin-6-ylmethyl)-3,4-dihydro-2H-benzo[b][1,4]oxazine-6-carboxamide] reads no more than 25 nM. With `O=C(NO)c1ccc2c(c1)N(Cc1ccc3ccccc3n1)C(=O)CO2` [Compound I-232, N-hydroxy-3-oxo-4-(quinolin-2-ylmethyl)-3,4-dihydro-2H-benzo[b][1,4]oxazine-6-carboxamide] the figure was no more than 25 nM; with `O=C(NO)c1ccc2c(c1)N(Cc1nc3ccc(C(F)(F)F)cc3o1)C(=O)CO2` [Compound I-233, N-hydroxy-3-oxo-4-((6-(trifluoromethyl)benzo[d]oxazol-2-yl)methyl)-3,4-dihydro-2H-benzo[b][1,4]oxazine-6-carboxamide], no more than 25 nM. As for `O=C(NO)c1ccc2c(c1)N(Cc1nc3cc(C(F)(F)F)ccc3o1)C(=O)CO2` [Compound I-234, N-hydroxy-3-oxo-4-((5-(trifluoromethyl)benzo[d]oxazol-2-yl)methyl)-3,4-dihydro-2H-benzo[b][1,4]oxazine-6-carboxamide], the IC50 is no more than 25 nM. As to `N#Cc1cccc(CN2C(=O)COc3ccc(C(=O)NO)cc32)c1` [Compound I-236, 4-(3-cyanobenzyl)-N-hydroxy-3-oxo-3,4-dihydro-2H-benzo[b][1,4]oxazine-6-carboxamide], the IC50 was no more than 25 nM. The result for `N#Cc1ccc(CN2C(=O)COc3ccc(C(=O)NO)cc32)cc1` [Compound I-237, 4-(4-cyanobenzyl)-N-hydroxy-3-oxo-3,4-dihydro-2H-benzo[b][1,4]oxazine-6-carboxamide] reads no more than 25 nM; that for `Cn1cc2cc(CN3C(=O)COc4ccc(C(=O)NO)cc43)ccc2n1` [Compound I-238, N-hydroxy-4-((2-methyl-2H-indazol-5-yl)methyl)-3-oxo-3,4-dihydro-2H-benzo[b][1,4]oxazine-6-carboxamide], no more than 25 nM.

For the origin of these results see patent publication US10370343B2, “[6,6] Fused bicyclic HDAC8 inhibitors” (FORMA Therapeutics, Inc., priority 2015, dated 2019).
